Experimental data published in patent US20070141091A1, “BIGUANIDE OINTMENT AND METHOD OF TREATMENT AND PREVENTION OF INFECTIONS” (priority 2005, published 2007).

Tests used:
[1] = system: Herpes simplex virus type 1; assay: HSV-1 Viral Suspension Assay; format: cell-based
Description: (§1) The Viral Suspension Assay was used to evaluate the antiviral properties of Alexidine against Herpes simplex virus type 1 when exposed in suspension for 1, 2, 5, and 10 minutes. The presence of virus (infectivity) was determined by monitoring the virus specific cytopathic effect (CPE) on an appropriate indicator cell line, rabbit kidney. Results are reported as Percent (%) Reduction in virus titer as compared to the corresponding virus control titer (Table 1). The titer of the virus controls were 7.5 log10 following the one minute exposure time; 7.0 log10 following the two minute exposure time; and 7.75 log10 following both the five and ten minute exposure times.

[2] = system: Adenovirus Type-4; assay: Viral Suspension Assay, Adenovirus Type-4; format: cell-based
Description: as §1, with “Adenovirus Type-4, Adenovirus Type-8 and Adenovirus Type-19 and Cytomegalovirus” for “Herpes simplex virus type 1”

[3] = system: Adenovirus Type-8; assay: Viral Suspension Assay, Adenovirus Type-8; format: cell-based
Description: as §1, with “Adenovirus Type-4, Adenovirus Type-8 and Adenovirus Type-19 and Cytomegalovirus” for “Herpes simplex virus type 1”

[4] = system: Adenovirus Type-19; assay: Viral Suspension Assay, Adenovirus Type-19; format: cell-based; conditions: for Percent Reduction (%) Adenovirus type 19: 1, 2, 5 and 10 minutes exposure
Description: as §1, with “Adenovirus Type-4, Adenovirus Type-8 and Adenovirus Type-19 and Cytomegalovirus” for “Herpes simplex virus type 1”

[5] = system: Cytomegalovirus; assay: Viral Suspension Assay, Cytomegalovirus; format: cell-based
Description: as §1, with “Adenovirus Type-4, Adenovirus Type-8 and Adenovirus Type-19 and Cytomegalovirus” for “Herpes simplex virus type 1”

[6] = system: Acanthamoeba keratitis; conditions: in combination with propamidine isothionate (Brolene), hexamidine (Desomodine), or neomycin; cited from earlier work
[7] = system: Acanthamoeba keratitis; conditions: bilateral case, one treatment per eye; cited from earlier work
[8] = system: experimental Aspergillus keratitis; conditions: 0.02%; cited from earlier work
[9] = Alexidine 30 ppm, 2 minutes exposure
[10] = Alexidine 30 ppm, 5 minutes exposure
[11] = Alexidine 30 ppm, 10 minutes exposure
[12] = Alexidine 99 ppm, 1 minute exposure
[13] = Alexidine 99 ppm, 2 minutes exposure
[14] = Alexidine 99 ppm, 5 minutes exposure
[15] = Alexidine 99 ppm, 10 minutes exposure
[16] = Alexidine 30 ppm, 1 minute exposure

Compound: CCCCC(CC)CNC(=N)NC(=N)NCCCCCCNC(=N)NC(=N)NCC(CC)CCCC (centres unmarked) [Alexidine, 1,1′-Hexamethylene-bis [5-(2-ethylhexyl)biguanide]]
- antimicrobial potency against Herpes Simplex-1, summary in words [1]: potent antimicrobial agent
- Percent Reduction of Herpes simplex virus type 1 ([1]; Alexidine 30 ppm, 1 minute exposure in suspension, vs virus control titer): 99.99%
- Percent Reduction of Herpes simplex virus type 1 [1, 9]: 99.99%
- Percent Reduction of Herpes simplex virus type 1 [1, 10]: 99.9994%
- Percent Reduction of Herpes simplex virus type 1 [1, 11]: ≧100%
- Percent Reduction of Herpes simplex virus type 1 [1, 12]: 99.999%
- Percent Reduction of Herpes simplex virus type 1 [1, 13]: 99.994%
- Percent Reduction of Herpes simplex virus type 1 [1, 14]: 99.9999%
- Percent Reduction of Herpes simplex virus type 1 [1, 15]: ≧100%
- effectiveness against herpes simplex type-1 virus (HSV-1), in words ([1]; at both 30 ppm and 99 ppm): effective agents
- Percent Reduction (%) Adenovirus type 4 [2, 16]: 43.8%
- Percent Reduction (%) Adenovirus type 4 [2, 10]: 82.2%
- Percent Reduction (%) Adenovirus type 4 [2, 11]: 68.4%
- Percent Reduction (%) Adenovirus type 4 [2, 12]: 68.4%
- Percent Reduction (%) Adenovirus type 4 [2, 14]: 43.8%
- Percent Reduction (%) Adenovirus type 4 [2, 15]: 68.4%
- effectiveness against Adenovirus Type-4, in words ([2]; at both 30 ppm and 99 ppm): somewhat effective
- Percent Reduction (%) Adenovirus type 8 [3, 16]: 96.8%
- Percent Reduction (%) Adenovirus type 8 [3, 9]: 94.4%
- Percent Reduction (%) Adenovirus type 8 [3, 10]: 82.2%
- Percent Reduction (%) Adenovirus type 8 [3, 11]: 90.0%
- Percent Reduction (%) Adenovirus type 8 [3, 12]: 82.2%
- Percent Reduction (%) Adenovirus type 8 [3, 13]: 82.2%
- Percent Reduction (%) Adenovirus type 8 [3, 14]: 90.0%
- Percent Reduction (%) Adenovirus type 8 [3, 15]: 90.0%
- effectiveness against Adenovirus Type-8, in words ([3]; at both 30 ppm and 99 ppm): somewhat effective
- effectiveness against the tested strain of Adenovirus Type-19, in words [4]: did not appear to be effective
- Percent Reduction (%) Adenovirus type 19 ([4]; Alexidine 30 ppm): No reduction
- Percent Reduction (%) Adenovirus type 19 ([4]; Alexidine 99 ppm): No reduction
- Percent Reduction (%) Cytomegalovirus [5, 16]: 43.8%
- Percent Reduction (%) Cytomegalovirus [5, 9]: 68.4%
- Percent Reduction (%) Cytomegalovirus [5, 11]: 43.8%
- Percent Reduction (%) Cytomegalovirus [5, 12]: 98.2%
- Percent Reduction (%) Cytomegalovirus [5, 13]: 99.0%
- Percent Reduction (%) Cytomegalovirus [5, 14]: 99.8%
- Percent Reduction (%) Cytomegalovirus [5, 15]: 99.98%
- effectiveness against Cytomegalovirus, in words ([5]; at both 30 ppm and 99 ppm): somewhat effective

Compound: N=C(NCCCCCCNC(=N)NC(=N)Nc1ccc(Cl)cc1)NC(=N)Nc1ccc(Cl)cc1 [chlorhexidine gluconate, 1,1′-hexamethylene-bis[5-(p-chlorophenyl)biguanide]]
- response of Acanthamoeba keratitis to treatment [6]: respond well

Compound: poly(hexamethylene biguanide) [polyhexamethylene biguanide]
- response of Acanthamoeba keratitis to treatment [6]: respond well
- treatment of recurrences of Acanthamoeba keratitis [7]: successfully treated
- efficacy in experimental Aspergillus keratitis [8]: moderately effective
